Data set [1] relates to HDACs (HeLa cell nuclear extracts). Nature of the data set: HDAC enzymatic activity, Biomol Color de Lys system. The data set is classed as biochemical. The method, then: (e) An In Vitro Assay which Determines the Ability of a Test Compound to Inhibit HDAC Enzymatic Activity.
HDAC inhibitory activity was assessed using the Biomol Color de Lys system (AK-500, Biomol, Plymouth Meeting, Pa.). Briefly, HeLa cell nuclear extracts were used as a source of HDACs. Different concentrations of test compounds were serially diluted in dimethylsulphoxide (DMSO) and added to HeLa cell nuclear extracts in the presence of a colorimetric artificial substrate. Final assay condition contained 50 mM Tris/Cl, pH 8.0, 137 mM NaCl, 2.7 mM KCl and 1 mM MgCl2. Reactions were carried in room temperature (25° C.) for 1 hour before addition of developer for termination. Relative enzyme activity was measured in the WALLAC Victor II 1420 microplate reader as floorescence intensity (excitation: 350-380 nm; emission: 440-460 nm). Data were analyzed using GraphPad Prism (v4.0a) with a sigmoidal dose response curve fitting for IC50 calculation.

Melting point and IC50 data for 55 compounds are collected here from US8906909B2 (Curis, Inc., priority 2009, dated 2014).

`CC(=O)NCc1ccc(-c2nc(N3CCOCC3)c3sc(CN(C)c4ncc(C(=O)NO)cn4)cc3n2)cc1` [Compound 136, 2-(((2-(4-(acetamidomethyl)phenyl)-4-morpholinothieno[3,2-d]pyrimidin-6-yl)methyl)(methyl)amino)-N-hydroxypyrimidine-5-carboxamide] yielded a melting point of 178 to 180 °C. Consider `O=C(NO)c1cnc(N2CCN(S(=O)(=O)c3cc4nc(-c5cccc6[nH]ncc56)nc(N5CCOCC5)c4s3)CC2)nc1` [Compound 51], for which, in data set [1], the IC50 was in the range of 0.1 to 1 µM. On to `NC(=O)CN(Cc1cc2nc(-c3cccc4[nH]ncc34)nc(N3CCOCC3)c2s1)c1ncc(C(=O)NO)cn1` [Compound 97], for which the IC50 in data set [1] was below 0.1 µM. `CN(Cc1cc2nc(-c3cccc4[nH]ncc34)nc(N3CCCCC3)c2s1)c1ncc(C(=O)NO)cn1` [Compound 67]: in data set [1], the concentration for half-maximal inhibition (IC50) was below 0.1 µM. Consider `O=C(NO)c1ccc2c(ccn2Cc2cc3nc(-c4cccc5[nH]ncc45)nc(N4CCOCC4)c3s2)c1` [Compound 105], for which the IC50 in data set [1] is 0.1 to 1 µM.

Turning to `CN(Cc1cc2nc(-c3ccc(O)nc3)nc(N3CCOCC3)c2s1)c1ncc(C(=O)NO)cn1` [Compound 254], the IC50 in data set [1] was below 0.1 µM. `Cc1c(CN(C)c2ncc(C(=O)NO)cn2)sc2c(N3CCOCC3)nc(-c3cccc4[nH]ncc34)nc12` [Compound 68] had an IC50 in data set [1] below 0.1 µM.

As for `CN(Cc1cc2nc(-c3ccc4c(c3)NC(=O)CO4)nc(N3CCOCC3)c2s1)c1ncc(C(=O)NO)cn1` [Compound 183], the IC50 in data set [1] was below 0.1 µM. For `CN(c1ncc(C(=O)NO)cn1)C(C)(C)c1cc2nc(-c3ccc(N)cc3)nc(N3CCOCC3)c2s1` [Compound 270], the IC50 in data set [1] is below 0.1 µM. The compound `CC(c1cc2nc(-c3ccc(N)cc3)nc(N3CCOCC3)c2s1)N(C)c1ncc(C(=O)NO)cn1` (stereo not shown) [Compound 214] showed an IC50 in data set [1] below 0.1 µM. In data set [1], `CN(Cc1cc2nc(-c3ccc4[nH]ccc4c3)nc(N3CCOCC3)c2s1)c1ncc(C(=O)NO)cn1` [Compound 192] showed an IC50 below 0.1 µM. Same read-out and setting: then `COc1ccc(-c2nc(N3CCOCC3)c3sc(CN(CCO)c4ncc(C(=O)NO)cn4)cc3n2)cn1` [Compound 265], with below 0.1 µM. `CS(=O)(=O)N1CCN(Cc2cc3nc(-c4cccc5[nH]ncc45)nc(NCCCCCC(=O)NO)c3s2)CC1` [Compound 35] returned an IC50 in data set [1] below 0.1 µM. The compound `O=C(CCCCCCNc1cc2nc(-c3cccc4[nH]ncc34)nc(N3CCOCC3)c2s1)NO` [Compound 20] gave an IC50 in data set [1] below 0.1 µM. The same measure, in the same setting: to `Cn1cc(CNc2cc3nc(-c4cccc5[nH]ncc45)nc(N4CCOCC4)c3s2)c2cc(C(=O)NO)ccc21` [Compound 106] belongs 1 to 10 µM.

`CN(Cc1cc2nc(-c3cccc4[nH]ncc34)nc(N3CCNCC3)c2s1)c1ncc(C(=O)NO)cn1` [Compound 60] displayed an IC50 in data set [1] below 0.1 µM. Same read-out and setting: to `C/C(=N/O)c1ccc(F)c(-c2nc(N3CCOCC3)c3sc(CN(C)c4ncc(C(=O)NO)cn4)cc3n2)c1` [Compound 298] belongs below 0.1 µM; to `O=C(/C=C/c1ccc(CNCc2cc3nc(-c4cccc5[nH]ncc45)nc(N4CCOCC4)c3s2)cc1)NO` [Compound 204], 0.1 to 1 µM. The same measure, in the same setting: then `CN(Cc1cc2nc(-c3ccc4c(c3)OCCN4)nc(N3CCOCC3)c2s1)c1ncc(C(=O)NO)cn1` [Compound 191], with below 0.1 µM. Turning to `CCCc1nc2cc(/C=C/C(=O)NO)ccc2n1CCN(C)Cc1cc2nc(-c3ccc(N)cc3)nc(N3CCOCC3)c2s1` [Compound 324], in data set [1], the IC50 lay within 0.1 to 1 µM. In data set [1], `CNc1ccc(-c2nc(N3CCOCC3)c3sc(CN(CCO)c4ncc(C(=O)NO)cn4)cc3n2)cn1` [Compound 245] yielded an IC50 below 0.1 µM. The compound `COc1ncc(-c2nc(N3CCOCC3)c3sc(C(C)(C)N(C)c4ncc(C(=O)NO)cn4)cc3n2)cn1` [Compound 264] gave an IC50 in data set [1] below 0.1 µM. Same read-out and setting: then `Cc1ncc(-c2nc(N3CCOCC3)c3sc(CN(CCO)c4ncc(C(=O)NO)cn4)cc3n2)s1` [Compound 312], with below 0.1 µM. Still for that read-out and setting: to `CN(Cc1cc2nc(-c3cccc(S(=O)(=O)CCO)c3)nc(N3CCOCC3)c2s1)c1ncc(C(=O)NO)cn1` [Compound 291] belongs below 0.1 µM; to `O=C(O)CN(Cc1cc2nc(-c3cccc4[nH]ncc34)nc(N3CCOCC3)c2s1)c1ncc(C(=O)NO)cn1` [Compound 88], 0.1 to 1 µM; to `CN(Cc1cc2nc(-c3cccc4[nH]ncc34)nc(N(CCO)CCO)c2s1)c1ncc(C(=O)NO)cn1` [Compound 162], below 0.1 µM. The same measure, in the same setting: then `Nc1ccc(-c2nc(N3CCOCC3)c3sc(CN(CCO)c4ncc(C(=O)NO)cn4)cc3n2)cc1` [Compound 274], with below 0.1 µM. In data set [1], `Nc1ccc(-c2nc(N3CCOCC3)c3sc(CN4CCN(c5ncc(C(=O)NO)cn5)CC4)cc3n2)cc1` [Compound 207] showed an IC50 below 0.1 µM. For `COC(=O)CN(Cc1cc2nc(-c3cccc4[nH]ncc34)nc(N3CCOCC3)c2s1)c1ncc(C(=O)NO)cn1` [Compound 89], in data set [1], the IC50 is below 0.1 µM. In data set [1], `CNc1ccc(-c2nc(N3CCOCC3)c3sc(CNCc4nc5cc(/C=C/C(=O)NO)ccc5n4C)cc3n2)cn1` [Compound 328] gave an IC50 of 0.1 to 1 µM.

`Cc1ncc(-c2nc(N3CCOCC3)c3sc(CN(C)c4ncc(C(=O)NO)cn4)cc3n2)s1` [Compound 311] showed an IC50 in data set [1] below 0.1 µM. On the same count and under the same terms, to `CNc1ccc(-c2nc(N3CCOCC3)c3sc(N(C)c4ncc(C(=O)NO)cn4)cc3n2)cn1` [Compound 243] belongs 0.1 to 1 µM; to `CCN(CC)c1nc(-c2cccc3[nH]ncc23)nc2cc(CN(C)c3ncc(C(=O)NO)cn3)sc12` [Compound 158], below 0.1 µM. For the compound `O=C(NO)c1cc2nc(-c3cccc4[nH]ncc34)nc(N3CCOCC3)c2s1` [Compound 45], the IC50 in data set [1] was above 10 µM.

`CC(=O)N1CCN(c2nc(-c3cccc4[nH]ncc34)nc3cc(CN(C)c4ncc(C(=O)NO)cn4)sc23)CC1` [Compound 62] registered an IC50 in data set [1] below 0.1 µM. Take `C/C(=N/O)c1cccc(-c2nc(N3CCOCC3)c3sc(CN(C)c4ncc(C(=O)NO)cn4)cc3n2)c1` [Compound 299]: in data set [1], the IC50 is below 0.1 µM.

`Nc1ccc(-c2nc(N3CCOCC3)c3sc(CN(CCO)c4ncc(C(=O)NO)cn4)cc3n2)cc1F` [Compound 277] returned an IC50 in data set [1] below 0.1 µM. `CC(C)C(=O)Nc1ccc(-c2nc(N3CCOCC3)c3sc(CN(C)c4ncc(C(=O)NO)cn4)cc3n2)cc1` [Compound 286]: the IC50 in data set [1] was below 0.1 µM.

In data set [1], `Nc1ccc(-c2nc(N3CCOCC3)c3sc(CN(CCO)c4ncc(C(=O)NO)cn4)cc3n2)cn1` [Compound 235] had an IC50 below 0.1 µM.

As for `CC(C)(Nc1ncc(C(=O)NO)cn1)c1cc2nc(-c3cccc4[nH]ncc34)nc(N3CCOCC3)c2s1` [Compound 71], the concentration for half-maximal inhibition (IC50) in data set [1] was below 0.1 µM.

In turn, `CNc1ccc(-c2nc(N3CCOCC3)c3sc(NS(=O)(=O)c4cccc(/C=C/C(=O)NO)c4)cc3n2)cn1` [Compound 224] registered an IC50 in data set [1] below 0.1 µM. Regarding `CS(=O)(=O)N1CCN(Cc2cc3nc(-c4cccc5[nH]ncc45)nc(NCCCCC(=O)NO)c3s2)CC1` [Compound 34], in data set [1], the IC50 is 0.1 to 1 µM. With `CN(Cc1cc2nc(-c3cccc4[nH]ncc34)nc(N3CCN(CCO)CC3)c2s1)c1ncc(C(=O)NO)cn1` [Compound 63], in data set [1], the half-inhibitory concentration (IC50) was below 0.1 µM. Compound `CN(Cc1cc2nc(-c3c[nH]c4ccccc34)nc(N3CCOCC3)c2s1)c1ncc(C(=O)NO)cn1` [Compound 184] came in with an IC50 in data set [1] below 0.1 µM. Same read-out and setting: then `O=C(NO)c1cnc(NCc2cc3cc(-c4cccc5[nH]ncc45)nc(N4CCOCC4)c3s2)nc1` [Compound 73], with below 0.1 µM. In data set [1], `Nc1ccc(-c2nc(N3CCOCC3)c3sc(CNCc4ccc(/C=C/C(=O)NO)cc4)cc3n2)cc1` [Compound 210] yielded an IC50 of 0.1 to 1 µM. `O=C(CCCCN1CCN(Cc2cc3nc(-c4cccc5[nH]ncc45)nc(N4CCOCC4)c3s2)CC1)NO` [Compound 11, 5-(4-((2-(1H-indazol-4-yl)-4-morpholinothieno[3,2-d]pyrimidin-6-yl)methyl)piperazin-1-yl)-N-hydroxypentanamide] registered a melting point of 125 to 127 °C. In turn, `O=C(NO)c1cnc(N2CCC(CNc3cc4nc(-c5cccc6[nH]ncc56)nc(N5CCOCC5)c4s3)CC2)nc1` [Compound 48] came in with an IC50 in data set [1] below 0.1 µM. In data set [1], `Nc1ccc(-c2nc(N3CCOCC3)c3sc(S(=O)(=O)NCC4CCN(c5ncc(C(=O)NO)cn5)CC4)cc3n2)cc1` [Compound 309] yielded an IC50 of 0.1 to 1 µM. Turning to `CN(Cc1cc2nc(-c3cnc(C(N)=O)nc3)nc(N3CCOCC3)c2s1)c1ncc(C(=O)NO)cn1` [Compound 122], the IC50 in data set [1] is below 0.1 µM. In turn, `CN(Cc1cc2nc(-c3ccc(N)cc3F)nc(N3CCOCC3)c2s1)c1ncc(C(=O)NO)cn1` [Compound 283, 2-{[2-(4-Amino-2-fluoro-phenyl)-4-morpholin-4-yl-thieno[3,2-d]pyrimidin-6-ylmethyl]-methyl-amino}-pyrimidine-5-carboxylic acid hydroxyamide] displayed an IC50 in data set [1] below 0.1 µM. `CC(=O)c1cccc(-c2nc(N3CCOCC3)c3sc(CN(C)c4ncc(C(=O)NO)cn4)cc3n2)c1` [Compound 300] displayed an IC50 in data set [1] below 0.1 µM.

For `CN(Cc1cc2nc(-c3ccc(OCc4ccccc4)nc3)nc(N3CCOCC3)c2s1)c1ncc(C(=O)NO)cn1` [Compound 260], the IC50 in data set [1] is below 0.1 µM. In data set [1], `CN(Cc1cc2nc(-c3cnc(OCc4ccccc4)nc3)nc(N3CCOCC3)c2s1)c1ncc(C(=O)NO)cn1` [Compound 266] came in with an IC50 below 0.1 µM. Still for that read-out and setting: then `Nc1ccc(-c2nc(N3CCOCC3)c3sc(CNCc4ccc(C(=O)NO)cc4)cc3n2)cc1` [Compound 209], with below 0.1 µM.
